This series in a line: Hygroscopicity analysis (DVS) of the valsartan crystal forms. The format is physicochemical. The settings on record: new crystal forms; result in words only; DVS comparison (Figure 11) not in text.

Turning to `CCCCC(=O)N(Cc1ccc(-c2ccccc2-c2nnn[nH]2)cc1)[C@H](C(=O)O)C(C)C` [晶型E, (S)-N-(1-戊酰基)-N-[[2’-(1H-四唑-5-基)[1,1’-联苯]-4-基]甲基]-L-缬氨酸], the hygroscopicity result was “吸湿性小”.
